Several values for one entry are separate records, joined by “and”; a condition that tells them apart may be missing. Equal entries are not always repeated. Where two headings read alike, the source gives them in different places.
Key:
VIM2 expressing E. coli = format: cell-based
Description: (§1) The cells were cultured on 0.8 g/100 ml nutrient agar plate at pH 7.0 and 37° C. The bacterial growth medium was diluted in nutrient broth (NB) to a concentration absorbance of 1.5 at OD600 nm and incubated overnight in 10 ml capped culture tubes with shaking. An overnight culture of the bacterial strain was sub-cultured to an optical density of 0.06 at OD600 nm into the NB medium and was then seeded at max 200 μl into the wells of a 96 well microtiter plate. Samples were then incubated at 37° C. and shaken at 200 rpm for 18 h.

E. coli = assay: Cell viability assay, wild type E. coli growth; format: cell-based; details: for relative percentage growth compared to untreated cells: E. coli
Description: as §1

VIM-2 [1] = molecular target: T1, VIM-2 (Pseudomonas aeruginosa, UniProt Q9K2N0); assay: Single dose enzymatic inhibition assay against VIM2 (nitrocefin hydrolysis); format: biochemical, P. aeruginosa; details: for VIM2 inhibition in words: single dose, 50 μM
Description: (§2) For our biochemical assay, the blavmugene, from a clinical strain of P. aeruginosa, was expressed using the pET24a (+) vector [20]. The pET24a-VIM-2 plasmid was transformed into competent BL21 (DE3) E. coli cells. The cells were plated onto an LB-agar plate with kanamycin (25 μg/mL) and incubated overnight at 37° C. A single colony was used to inoculate 50 mL of LB, containing 25 μg/mL kanamycin, and the culture was shaken overnight at 37° C. From the overnight culture, 10 mL were transferred to 4×1 L LB medium containing 25 μg/mL kanamycin. The cultures were grown at 37° C. until the optical density (OD600 nm) reached 0.6-0.8, at which point protein production was induced with IPTG (0.5 mM) and ZnC12 (100 μM). The temperature was reduced to 20° C., and the cells were shaken for an additional 18 h. The cultures were harvested by centrifugation (8K×g) for 10 min at 4° C. The resulting pellets were re-suspended with 25 mL of 50 mM HEPES, pH 7.5, containing 500 mM NaCl (buffer B). The cells were lysed with three passes through a French Press. The lysate was centrifuged (15 Kxg) for 30 min at 4° C. The supernatant was dialyzed against 2 L of 50 mM HEPES, pH 7.5 (buffer A), for 4 h. Buffer A was used to equilibrate a 25 mL Q-Sepharose column using an FPLC. The sample was loaded onto the column, and proteins were eluted with a linear gradient 0-500 mM NaCl with buffer B. Fractions containing VIM2, determined by SDS-PAGE, were pooled and concentrated to 2-3 mL in an Amicon ultraconcentrator equipped YM-10 membrane. Further purification was conducted with a Sephacryl S-200 gel filtration column using 50 mM HEPES, pH 7.5, containing 150 mM NaCl.

VIM-2 [2] = molecular target: T1, VIM-2; details: literature value; read-out: IC50 in parenthesis reported from ref. 3; cited from earlier work
VIM-2 [3] = molecular target: T1, VIM-2; assay: Dose response enzymatic inhibition assay and inhibition constant against VIM2; format: biochemical, P. aeruginosa; details: for Ligand efficiency (LE): LE = −1.38 log (Ki)/N, N = number of heavy atoms
Description: as §2
The relative change in absorbance was evaluated as percentage inhibition and the IC50 was determined by fitting the data to a sigmoidal dose-response curve. The enzyme inhibition constant (Ki) was derived from initial-velocity measurements by nonlinear regression using competitive-inhibition enzyme kinetics using Graphpad Prism 6.

[4] = Cytotoxicity by MTT cell proliferation assay in HEK293; details: human, HEK293 cells
Description: (§3) Human embryonic kidney cell line (HEK293) was grown in DMEM (Dulbecco's modifications of eagle's medium with L-glutamine & 4.5 G/L glucose) supplemented with fetal bovine serum 100 units/ml of penicillin G and 0.1 mg/ml of streptomycin sulfate in a humidified atmosphere of a 5% CO2 at 37° C.
(§4) Cell proliferations were measured by counting viable cells by using the 3(4,5dimethylthiazol-2-yl)-2,5-diphenyltetrazolium bromide (MTT) (Sigma-Aldrich, St. Louis, Mo.) colorimetric dye-reduction assay. […] After 72 hrs, 10 μl of MTT (5 mg/ml) dye was added to each well and the plates were incubated for 4 hours at 37° C. in 5% CO2 incubator. After centrifuge with 1,500 rpm/10 mins, the supernatant was removed and 200 μl of dimethyl sulfoxide (DMSO) was added and the plates were gently shaken to solubilize the formed formazan for 30 min. The absorbance was measured using a micro-plate reader at wave length 590 nm. The CC50 were obtained by fitting the data to a sigmoidal dose-response equation using Graphpad Prism 6.

HEK293 cells [5] = system: HEK293 cells
Description: as §3, §4

VIM-2 expressing E. coli = assay: EC50* for restoring amoxicillin growth inhibition in VIM-2 expressing E. coli; format: cell-based; details: in the presence of 50 μM amoxicillin
Description: as §1
The bacterial culture was prepared as described above. […] The mixing of the bacterial culture plate were then incubated in a 37° C. […] shaken incubator at 200 rpm for 18 h before measuring their optical density at 600 nm.

HEK293 cells [6] = assay: Cytotoxicity by MTT cell proliferation assay in HEK293; details: HEK293 CC50 ratio
Description: as §3, §4

HDACs = details: earlier study; cited from earlier work
[7] = 50 μM compound, 5 nM VIM-2, 10 μM nitrocefin, 30 mins
[8] = 5 nM VIM-2, 10 μM nitrocefin, read-out: IC50
[9] = competitive-inhibition fit, nitrocefin substrate, read-out: Ki

| Compound | relative percentage growth compared to untreated cells (VIM2 expressing E. coli; Amox(+), 50 μM amoxicillin) [%] | relative percentage growth compared to untreated cells (E. coli; Amox(+), 50 μM amoxicillin) [%] | relative percentage growth compared to untreated cells (VIM2 expressing E. coli; Amox(−)) [%] | % Inhibition at 50 μM (VIM-2 [1]; [7]) [%] | inhibition at 50 µM (VIM-2 [1]; [7]) [%] | relative percentage growth compared to untreated cells (E. coli; Amox(−)) [%] | VIM2 inhibition in words (VIM-2 [1]) | other results |
| --- | --- | --- | --- | --- | --- | --- | --- | --- |
| CC1(C)S[C@@H]2[C@H](NC(=O)[C@H](N)c3ccc(O)cc3)C(=O)N2[C@H]1C(=O)O [Amox, amoxicillin] | 77 | 3.6 |  |  |  |  |  | growth inhibition by amoxicillin alone (E. coli; wild type E. coli, 50 μM): over 96% |
| O=C(O)[C@H]1/C(=C/CO)O[C@@H]2CC(=O)N21 [Clavulanate] | 57 | 2.9 | 93 | 15 | ≤ 25 | 86 |  |  |
| C[C@]1(Cn2ccnn2)[C@H](C(=O)O)N2C(=O)C[C@H]2S1(=O)=O [Tazobactam] |  |  |  | 25 | ≤ 25 |  |  |  |
| C[C@H](CS)C(=O)N1CCC[C@H]1C(=O)O [L-Captopril] |  |  |  | 98 |  |  |  | IC50 (VIM-2 [2]): 4400 nM; antibacterial activity on their own, in words (VIM2 expressing E. coli): moderate antibacterial activity; synergistic growth inhibition with amoxicillin (VIM2 expressing E. coli): over 90%; antibacterial activity on their own, in words (E. coli; wild type E. coli): moderate antibacterial activity |
| O=C(CCCCCCC(=O)Nc1ccccc1)NO [SAHA] | 60 | 3.6 | 79 | 29 |  | 83 | Poor inhibition |  |
| Zinc pyrithione [Compound 2a] |  |  |  | 15 |  |  |  |  |
| O=C(N[C@@H](C(=O)O)c1ccccc1)c1cccc(=S)n1O [Compound 5] |  |  |  | 34 |  |  | Moderate inhibitory activities | fold loss of Ki relative to compound 3 (VIM-2 [3]): 576 fold; IC50 (VIM-2 [3]; [8]): 67900 nM; Ligand efficiency (LE) (VIM-2 [3]): 0.34; Ki (VIM-2 [3]; [9]): 7500 nM |
| On1ccccc1=S [Compound 2b, 1-Hydroxypyridine-2-thione] |  |  |  |  |  |  |  | IC50 (VIM-2 [3]): 908 nM; Ki (VIM-2 [3]): 217 nM; growth inhibition activity on its own (VIM2 expressing E. coli; compound alone): over 89%; inhibition at 50 µM (VIM-2 [1]): 93%; growth inhibition activity on its own (E. coli; wild type E. coli, compound alone): over 89%; CC50 at 72 h [4]: 14 nM |
| O=C(O)c1cccc(=S)n1O [Compound 3, 1-Hydroxypyridine-2(1H)-thiones-6-carboxylic acid] | 3.2 | 3.6 | 61 | 98 |  | 77 |  | IC50 (VIM-2 [3]; [8]): 270 nM; Ligand efficiency (LE) (VIM-2 [3]): 0.99; Ki (VIM-2 [3]; [9]): 13 nM; IC50 (VIM-2 [3]; read-out: IC50): 270 nM; Ki (VIM-2 [3]; read-out: Ki): 13 nM; antibacterial activity on their own, in words (VIM2 expressing E. coli): moderate antibacterial activity; synergistic growth inhibition with amoxicillin (VIM2 expressing E. coli): over 90%; CC50 (HEK293 cells [5]): 97000 nM; antibacterial activity on their own, in words (E. coli; wild type E. coli): moderate antibacterial activity; EC50 (VIM-2 expressing E. coli): 100 nM and 110 nM; fold change in cytotoxicity from parent compound 2 (HEK293 cells [6]): 6900 fold; range selectivity among all eleven HDACs (HDACs): ~5000 fold |
| O=C(NC(C(=O)O)c1ccccc1)c1ccc(=O)n(O)c1 (stereo not drawn) [Compound 1, 2-(1-Hydroxy-6-oxo-1,6-dihydropyridine-3-carboxamido)-2-phenylacetic acid] |  |  |  |  | 12 |  | Poor inhibition |  |

From patent publication US11491146B2, “Therapeutic methods and combinations” (priority 2017, dated 2022)
